One may read the IC50 as the concentration needed to halve the response being measured. Lower therefore signals higher potency. One may read the GI50 as the concentration at which growth is held to half of that of the control. A low value points to greater sensitivity of the cells.

Six compounds from publication PMC9963398, “Discovery of New Quinolone-Based Diarylamides as Potent B-RAF^V600E/C-RAF Kinase Inhibitors Endowed with Promising In Vitro Anticancer Activity” (International Journal of Molecular Sciences, 2023) can be followed below.

Assay [1] deals with T1, B-RAF^V600E (Homo sapiens, UniProt P15056, V600E).
T1 construct: purchased Reaction Biology Corporation (RBC), Kinase HotSpot service
Nature of the assay: HotSpot kinase assay (RBC), B-RAF^V600E. Particulars: for IC50: 10 µM ATP, 10-dose singlicate IC50 mode. It counts as biochemical.

The test system of assay [2] is A498. The assay is described as follows: NCI-60 five-dose SRB assay. It is filed as cell-based. Particulars: Homo sapiens; A498, Renal cancer, five-dose test. A digest of the protocol:
(§1)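 Compounds went through the NCI's full 60-cell-line human tumour panel. Growth was measured by sulforhodamine B staining according to the institute's routine procedure.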
On the technique in general: Sulforhodamine B stains cellular protein and so reports cell mass.

Assay [3] relates to BT-549. Nature of the assay: NCI-60 five-dose SRB assay. It counts as cell-based. Particulars: Homo sapiens; BT-549, Breast cancer, five-dose test. An outline of the steps: as §1
Assay [4] relates to DU-145. Nature of the assay: NCI-60 five-dose SRB assay. It is filed as cell-based. Particulars: Homo sapiens; DU-145, Prostate cancer, five-dose test. An outline of the steps:
as §1

The subject of assay [5] is EKVX. Nature of the assay: NCI-60 five-dose SRB assay. It counts as cell-based. Particulars: Homo sapiens, NSCL cancer, five-dose test. An outline of the steps:
as §1

Assay [6] concerns HCT-15. Nature of the assay: NCI-60 five-dose SRB assay. It is filed as cell-based. Particulars: Homo sapiens; HCT-15, Colon cancer, five-dose test. A digest of the protocol:
as §1

The subject of assay [7] is HS 578T. The assay is described as follows: NCI-60 five-dose SRB assay. It counts as cell-based. Particulars: Homo sapiens, Breast cancer, five-dose test. A digest of the protocol: as §1
The subject of assay [8] is HT29. Nature of the assay: NCI-60 five-dose SRB assay. It is filed as cell-based. Particulars: Homo sapiens, HT-29; HT29, Colon cancer, five-dose test. An outline of the steps:
as §1

Assay [9] has as its system NCI-H23. The assay is described as follows: NCI-60 five-dose SRB assay. It counts as cell-based. Particulars: Homo sapiens; NCI-H23, NSCL cancer, five-dose test. An outline of the steps: as §1
Assay [10] relates to NCI-H460. The assay is described as follows: NCI-60 five-dose SRB assay. Particulars: Homo sapiens; NCI-H460, NSCL cancer, five-dose test. It counts as cell-based. A digest of the protocol:
as §1

Assay [11] has as its system NCI/ADR-RES. The assay is described as follows: NCI-60 five-dose SRB assay. It counts as cell-based. Particulars: Homo sapiens, Ovarian cancer, five-dose test. A digest of the protocol: as §1
For assay [12], the system named is OVCAR-5. The assay is described as follows: NCI-60 five-dose SRB assay. It is filed as cell-based. Particulars: Homo sapiens; OVCAR-5, Ovarian cancer, five-dose test. A digest of the protocol: as §1
The test system of assay [13] is RPMI-8226. The assay is described as follows: NCI-60 five-dose SRB assay. Particulars: Homo sapiens; RPMI-8226, Leukemia, five-dose test. It counts as cell-based. A digest of the protocol: as §1
Assay [14] deals with SF-268. The assay is described as follows: NCI-60 five-dose SRB assay. It is filed as cell-based. Particulars: Homo sapiens; SF-268, CNS cancer, five-dose test. An outline of the steps:
as §1

Assay [15] concerns SK-OV-3. The assay is described as follows: NCI-60 five-dose SRB assay. It counts as cell-based. Particulars: Homo sapiens; SK-OV-3, Ovarian cancer, five-dose test. An outline of the steps:
as §1

For assay [16], the system named is SN12C. The assay is described as follows: NCI-60 five-dose SRB assay. Particulars: Homo sapiens, Renal cancer, five-dose test. It counts as cell-based. An outline of the steps: as §1
Assay [17] deals with SNB-19. The assay is described as follows: NCI-60 five-dose SRB assay. It counts as cell-based. Particulars: Homo sapiens; SNB-19, CNS cancer, five-dose test. A digest of the protocol:
as §1

For assay [18], the system named is SR. Nature of the assay: NCI-60 five-dose SRB assay. It is filed as cell-based. Particulars: Homo sapiens, Leukemia, five-dose test. An outline of the steps:
as §1

The subject of assay [19] is TK-10. The assay is described as follows: NCI-60 five-dose SRB assay. It is filed as cell-based. Particulars: Homo sapiens; TK-10, Renal cancer, five-dose test. An outline of the steps:
as §1

Assay [20] relates to UO-31. Nature of the assay: NCI-60 five-dose SRB assay. It is filed as cell-based. Particulars: Homo sapiens; UO-31, Renal cancer, five-dose test. An outline of the steps:
as §1

In assay [21] the test system is NCI-60 human tumor cell lines. The assay is described as follows: NCI-60 five-dose testing, ranges over panel or subpanel. It counts as cell-based. Particulars: Homo sapiens, range over lines. As for the experimental part: The anticancer screening of target compounds over a full panel of 60 human cancer cell lines was carried out using Sulforhodamine B (SRB) assay at the National Cancer Institute (NCI), Bethesda, Maryland, USA, employing the standard protocol.

For assay [22], the system named is NCI-60 human cancer cell lines. The assay is described as follows: NCI-60 single dose (10 µM) testing. It counts as cell-based. Particulars: single dose 10 µM. As for the experimental part:
Encouraged by the promising results in the cell-free assay, the antiproliferative activity of all final compounds was evaluated by the National Cancer Institute (NCI) in a single dose of 10 µM over a library of 60 human cancer cell lines representing nine cancer types; leukemia, non-small cell lung (NSCL), colon, central nervous system (CNS), melanoma, ovarian, renal, prostate, and breast cancer.

T1 sequence (P15056 whole entry V600E): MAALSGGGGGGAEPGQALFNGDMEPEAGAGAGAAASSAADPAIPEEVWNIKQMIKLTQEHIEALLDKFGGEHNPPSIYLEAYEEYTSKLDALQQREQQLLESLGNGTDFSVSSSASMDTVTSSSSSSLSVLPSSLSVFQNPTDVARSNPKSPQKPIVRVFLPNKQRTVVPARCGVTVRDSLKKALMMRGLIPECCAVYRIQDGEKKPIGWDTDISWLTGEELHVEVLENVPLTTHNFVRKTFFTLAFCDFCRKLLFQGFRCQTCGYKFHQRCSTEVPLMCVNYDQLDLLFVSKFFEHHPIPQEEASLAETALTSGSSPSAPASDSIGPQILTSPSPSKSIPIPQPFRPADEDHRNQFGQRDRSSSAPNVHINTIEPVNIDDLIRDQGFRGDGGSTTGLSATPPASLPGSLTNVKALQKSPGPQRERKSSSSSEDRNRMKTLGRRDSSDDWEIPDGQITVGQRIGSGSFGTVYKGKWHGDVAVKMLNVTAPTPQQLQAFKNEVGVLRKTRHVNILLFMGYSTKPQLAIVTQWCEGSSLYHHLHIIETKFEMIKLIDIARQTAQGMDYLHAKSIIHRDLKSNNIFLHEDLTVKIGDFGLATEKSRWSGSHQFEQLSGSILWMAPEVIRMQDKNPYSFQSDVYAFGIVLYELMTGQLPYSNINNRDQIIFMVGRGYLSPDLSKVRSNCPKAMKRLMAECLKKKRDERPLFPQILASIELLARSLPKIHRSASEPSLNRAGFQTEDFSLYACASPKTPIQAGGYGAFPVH

As for `COc1cccc2nc(Nc3cccc(NC(=O)c4ccc(CN5CCN(C)CC5)c(C(F)(F)F)c4)c3)ccc12` [Compound 14a, 4-((4-methylpiperazin-1-yl)methyl)-N-(3-((5-methoxyquinolin-2-yl)amino)phenyl)-3-(trifluoromethyl)benzamide], in assay [1], the IC50 amounted to 0.498 ± 0.0358 µM. The GI50 in assay [2] came out at 2 µM; in assay [3], 7.01 µM; in [4] it was 1.98 µM; in assay [5] it was 2.1 µM; in assay [6], 1.78 µM; in assay [7], 1.84 µM. Further, the GI50 came to 1.86 µM in assay [8]; 1.91 µM in [9]; 1.71 µM in [10]; 2.28 µM in [11]; 1.84 µM in assay [12]; 2.78 µM in assay [13]. Moreover, the GI50 in assay [14] was 1.69 µM; in assay [15], 9.22 µM; in assay [16], 1.71 µM; in assay [17], 1.78 µM; in assay [18] it was 1.85 µM; in assay [19], 2.15 µM. For the same compound, in assay [20], growth was halved (GI50) at 1.64 µM.
`COc1cccc2nc(Nc3cccc(NC(=O)c4ccc(CN5CCCN(C)CC5)c(C(F)(F)F)c4)c3)ccc12` [Compound 14b, N-(3-((5-methoxyquinolin-2-yl)amino)phenyl)-4-((4-methyl-1,4-diazepan-1-yl)methyl)-3-(trifluoromethyl)benzamide] gave an IC50 in assay [1] of 0.355 ± 0.0108 µM. The GI50 was 13.5 µM in [2]; 2.06 µM in [3]; 2.19 µM in assay [4]; 1.72 µM in assay [5]; 1.62 µM in [6]; 2.46 µM in [7]. Moreover, the GI50 in [8] is 1.66 µM; in [9], 1.68 µM; in assay [10], 1.76 µM; in assay [11], 1.72 µM; in [12] it was 1.71 µM; in assay [13], 1.93 µM. The GI50 in assay [14] came to 1.77 µM; in assay [15] it was 4.33 µM; in [16] it was 1.63 µM; in assay [17], 1.72 µM; in assay [19] it was 4.91 µM; in assay [20], 1.74 µM.
For the compound `CCN1CCN(Cc2ccc(C(=O)Nc3cccc(Nc4ccc5c(OC)cccc5n4)c3)cc2C(F)(F)F)CC1` [Compound 14c, 4-((4-ethylpiperazin-1-yl)methyl)-N-(3-((5-methoxyquinolin-2-yl)amino)phenyl)-3-(trifluoromethyl)benzamide], the half-maximal inhibitory concentration (IC50) in assay [1] is 0.619 ± 0.0027 µM. The GI50 in assay [2] turned out to be 11.8 µM; in assay [3] it was 5.35 µM; in assay [4], 2.55 µM; in assay [5], 4.06 µM; in [6] it was 1.58 µM; in assay [7] it was 1.96 µM. The GI50 in assay [8] is 1.76 µM; in [9], 2.37 µM; in assay [10], 1.47 µM; in assay [11], 2.28 µM; in [12] it was 3.28 µM; in assay [13], 2.24 µM. For the same compound, the GI50 in assay [14] was found to be 2.17 µM; in [15], 12.6 µM; in assay [16], 3.62 µM; in assay [17], 1.65 µM; in assay [18], 1.87 µM; in assay [19] it was 8.67 µM. In [20], this compound gave a concentration for 50% growth inhibition (GI50) of 2.33 µM.
For the compound `COc1cccc2nc(Nc3ccc(F)c(NC(=O)c4ccc(CN5CCN(C)CC5)c(C(F)(F)F)c4)c3)ccc12` [Compound 15a, N-(2-fluoro-5-((5-methoxyquinolin-2-yl)amino)phenyl)-4-((4-methylpiperazin-1-yl)methyl)-3-(trifluoromethyl)benzamide], the IC50 in [1] turned out to be 0.314 ± 0.0229 µM. The GI50 turned out to be 16.9 µM in assay [2]; 10.5 µM in [3]; 12.9 µM in [4]; 14.7 µM in assay [5]; 13.4 µM in assay [6]; 14.1 µM in [7]. The GI50 was determined as 3.61 µM in assay [8]; 15.5 µM in assay [9]; 15.9 µM in assay [10]; 16.1 µM in assay [12]; 9.3 µM in [13]; 11.1 µM in assay [14]. Moreover, the 50% growth inhibitory concentration (GI50) was 15.7 µM in assay [15]; 13.4 µM in assay [16]; 17.2 µM in assay [17]; 9.83 µM in [18]; 16.4 µM in assay [19]; 12.6 µM in assay [20]. Further, the GI50 in assay [21] (all cancer cell lines) was in the range of 3.61 to 18.8 µM; in assay [21] (melanoma cell lines), 11.7 to 16.3 µM.
Turning to `COc1ccc2nc(Nc3cccc(NC(=O)c4ccc(CN5CCN(C)CC5)c(C(F)(F)F)c4)c3)ccc2c1` [Compound 16a, N-(3-((6-methoxyquinolin-2-yl)amino)phenyl)-4-((4-methylpiperazin-1-yl)methyl)-3-(trifluoromethyl)benzamide], the IC50 in [1] amounted to 0.193 ± 0.0076 µM. The “better kinase inhibition activity compared to 14a, B-RAF^V600E” value in assay [1] (ratio of IC50 versus 14a) came to 2.6 fold. The concentration for 50% growth inhibition (GI50) is 7.35 µM in assay [2]; 5.58 µM in assay [3]; 5.24 µM in assay [4]; 4.53 µM in assay [5]; 1.18 µM in assay [6]; 4.14 µM in [7]. For the same compound, the GI50 in assay [8] worked out at 1.32 µM; in [9], 5.06 µM; in assay [10], 1.88 µM; in assay [12], 6.1 µM; in assay [13] it was 3.14 µM; in assay [14], 5.2 µM. Besides, the GI50 in assay [15] came to 5.99 µM; in [16], 5.49 µM; in [17] it was 6.14 µM; in assay [18], 1.31 µM; in [19], 6.52 µM; in [20], 5.68 µM.
In turn, `CN1CCCN(Cc2ccc(C(=O)Nc3cccc(Nc4ccc5cc(O)ccc5n4)c3)cc2C(F)(F)F)CC1` [Compound 18b, N-(3-((6-hydroxyquinolin-2-yl)amino)phenyl)-4-((4-methyl-1,4-diazepan-1-yl)methyl)-3-(trifluoromethyl)benzamide] gave an IC50 in assay [1] of 0.227 ± 0.00355 µM. For the same compound, the GI50 in assay [2] is 17.6 µM; in assay [4], 16.9 µM; in assay [5], 16 µM; in [6], 16.4 µM; in [7], 14.8 µM; in assay [8], 13.3 µM. In addition, the GI50 in assay [9] is 16.8 µM; in assay [10], 18 µM; in assay [12], 15.3 µM; in assay [13] it was 11.4 µM; in assay [14], 17.3 µM; in assay [15], 17.6 µM. For the same compound, the GI50 was 17.3 µM in [16]; 17 µM in assay [17]; 1.89 µM in [18]; 18.5 µM in assay [19]; 15.2 µM in assay [20]; 3.39 to 17.8 µM in assay [21] (NSCL cell lines). Moreover, the GI50 in [21] (colon cancer cell lines) lay in the range of 2.09 to 18.5 µM; in assay [21] (melanoma cell lines) it was 10.4 to 17.2 µM. The “effect on cell growth” value in assay [22] (LOX IMVI) was “lethal effect”. In addition, the growth percent entry in assay [22] (melanoma SK-MEL-29, SK-MEL-5, and UACC-62) is listed as “under −90%”.
